Experimental data as given in patent US4839375A, “(Aryl or heteroaromatic methyl)-2,2'-bi-1H-imidazoles and their use as anti-hypertensive agents” (Merrell Dow Pharmaceuticals Inc., priority 1987, dated 1989).

Each compound was assayed against T1, dopamine β-hydroxylase (DBH) (Bos taurus, UniProt P15101) (assay: DBH inhibition, oxygen uptake followed with a polarographic electrode and oxygen monitor). Conditions: ascorbate electron donor, tyramine substrate; pH 4.5 to 5.5, preferably pH 5.0; 20° C. to 40° C., preferably 37° C.; read-out: DBH inhibitory activity, IC50 (concentration at which the reaction is inhibited by 50%).
T1 sequence (P15101 1-610): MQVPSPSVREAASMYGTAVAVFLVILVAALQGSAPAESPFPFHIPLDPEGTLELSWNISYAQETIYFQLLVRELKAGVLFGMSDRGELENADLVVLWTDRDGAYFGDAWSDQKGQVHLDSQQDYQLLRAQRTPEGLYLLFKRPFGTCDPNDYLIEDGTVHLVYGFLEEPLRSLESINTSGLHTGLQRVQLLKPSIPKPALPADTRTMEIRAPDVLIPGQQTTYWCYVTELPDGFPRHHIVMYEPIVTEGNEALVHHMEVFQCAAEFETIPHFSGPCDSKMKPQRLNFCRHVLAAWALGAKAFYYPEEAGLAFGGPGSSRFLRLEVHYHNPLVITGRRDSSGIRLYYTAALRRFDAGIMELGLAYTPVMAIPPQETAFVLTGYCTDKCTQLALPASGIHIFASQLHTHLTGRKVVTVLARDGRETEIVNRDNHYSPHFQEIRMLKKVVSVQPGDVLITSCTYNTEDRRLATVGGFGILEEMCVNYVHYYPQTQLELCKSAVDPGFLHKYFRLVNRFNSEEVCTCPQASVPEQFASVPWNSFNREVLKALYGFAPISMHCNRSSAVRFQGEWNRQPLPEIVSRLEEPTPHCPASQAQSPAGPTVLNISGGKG
Type: biochemical
Procedure: The DBH inhibitory properties of the compounds of this invention can readily be determined by standard and well-known procedures. For example, inhibition of DBH was determined by a procedure wherein enzymatic activity was ascertained in aqueous solution in the presence of molecular oxygen, an electron donor such as ascorbate, a substrate such as tyramine, an inhibitor, and the necessary cofactors for the enzyme at a pH of 4.5 to 5.5, preferably pH 5.0, and at a temperature of 20° C. to 40° C., preferably 37° C. The inhibitor was assayed over a range of concentrations. Each reaction was followed by measuring oxygen uptake as an indication of enzyme activity using a polarographic electrode and an oxygen monitor, following the method of S. May, et al., J. Biol. Chem., 256, 2258 (1981).

Going from `c1c[nH]c(-c2nccn2Cc2ccsc2)n1` [1-(3-thienylmethyl)-2,2'-bi-1H-imidazole] to `c1csc(Cn2ccnc2-c2ncc[nH]2)c1` [1-(2-Thienylmethyl)-2,2'-bi-1H-imidazole], the IC50 rises from 29 µM to 65.5 µM (2.3-fold).

With `c1c[nH]c(-c2nc(Cc3ccsc3)c[nH]2)n1` [4-(3-thienylmethyl)-2,2'-bi-1H-imidazole] the IC50 was 8.8 µM.
